Data reported in US11161856B2 (H. Lundbeck A/S, priority 2017, dated 2021).

How the values were obtained:
Type in all cases: biochemical
[1] = molecular target: T1, MAGL (Homo sapiens, UniProt Q99685); experiment: In vitro competitive activity-based protein profiling (FP-Rh or HT-01 probe, gel-based); set-up: IC50 MGLL PC3 (Human, μM) / IC50 MGLL PFC (Human, μM): scale not given here; settings: for IC50 MGLL PC3 (Human, μM) / % Inh MGLL PC3 (Human, μM): PC3 cell proteome; for % Inh MGLL PC3 (Human, μM) / % Inh MGLL PFC (Human, μM): concentration not given (μM); for IC50 MGLL PFC (Human, μM) / % Inh MGLL PFC (Human, μM): prefrontal cortex (PFC) proteome
T1 construct: Proteomes (human prefrontal cortex or cell membrane fractions); from tissue
T1 sequence (Q99685 1-303): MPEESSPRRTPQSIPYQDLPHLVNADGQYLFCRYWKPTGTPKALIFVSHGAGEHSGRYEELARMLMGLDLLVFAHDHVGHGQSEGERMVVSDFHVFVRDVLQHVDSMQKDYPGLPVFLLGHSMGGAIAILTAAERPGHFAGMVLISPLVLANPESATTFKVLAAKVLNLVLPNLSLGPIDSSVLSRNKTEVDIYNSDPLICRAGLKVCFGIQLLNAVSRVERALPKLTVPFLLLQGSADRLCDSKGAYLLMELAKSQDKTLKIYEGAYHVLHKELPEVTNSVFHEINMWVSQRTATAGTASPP
Protocol: (§1) In Vitro Competitive Activity-Based Protein Profiling.
(§2) Proteomes (human prefrontal cortex or cell membrane fractions) (50 μL, 1.0 mg/mL total protein concentration) were preincubated with varying concentrations of inhibitors at 37° C. After 30 min, FP-Rh or HT-01 (1.0 μL, 50 μM in DMSO) was added and the mixture was incubated for another 30 min at room temperature. Reactions were quenched with SDS loading buffer (15 μL-4×) and run on SDS-PAGE.

[2] = molecular target: T2, ABHD6 (Mus musculus, UniProt Q8R2Y0); experiment: In vitro competitive activity-based protein profiling, mouse brain proteome (ABHD6); settings: mouse brain proteome; concentration not given (μM)
T2 construct: Brain; from tissue; host or cells: mouse brain proteome
T2 sequence (Q8R2Y0 1-336): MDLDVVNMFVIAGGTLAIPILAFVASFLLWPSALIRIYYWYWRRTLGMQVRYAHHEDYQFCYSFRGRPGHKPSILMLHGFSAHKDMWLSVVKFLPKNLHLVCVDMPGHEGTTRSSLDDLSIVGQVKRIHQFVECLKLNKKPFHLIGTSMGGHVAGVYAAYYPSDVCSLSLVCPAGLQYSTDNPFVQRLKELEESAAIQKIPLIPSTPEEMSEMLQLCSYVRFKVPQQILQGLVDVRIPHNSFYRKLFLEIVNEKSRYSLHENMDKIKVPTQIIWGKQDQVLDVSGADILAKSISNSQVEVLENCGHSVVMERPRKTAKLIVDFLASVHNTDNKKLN
Protocol: [The source words this procedure for another target and reports this target under the same test.] as §1, §2

[3] = molecular target: T3, MGLL (Mus musculus, UniProt O35678); experiment: In vitro competitive activity-based protein profiling, mouse brain proteome (MGLL); set-up: IC50 MGLL Brain (Mouse, μM): scale not given here; settings: for % Inh MGLL Brain (Mouse, μM): concentration not given (μM)
T3 construct: Brain; from tissue; host or cells: mouse brain proteome
T3 sequence (O35678 1-303): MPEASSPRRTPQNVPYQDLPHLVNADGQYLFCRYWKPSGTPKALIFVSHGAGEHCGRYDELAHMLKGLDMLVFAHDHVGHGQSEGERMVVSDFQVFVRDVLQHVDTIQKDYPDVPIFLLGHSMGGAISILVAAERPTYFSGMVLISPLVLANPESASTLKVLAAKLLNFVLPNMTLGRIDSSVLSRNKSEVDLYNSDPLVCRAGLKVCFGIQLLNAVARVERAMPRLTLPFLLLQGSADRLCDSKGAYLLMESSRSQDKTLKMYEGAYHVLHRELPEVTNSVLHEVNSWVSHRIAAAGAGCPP

Compound	IC50 MGLL PC3 (Human, μM) [1]	% Inh MGLL PC3 (Human, μM) [1]	IC50 MGLL PFC (Human, μM) [1]	% Inh ABHD6 Brain (Mouse, μM) [2]	IC50 MGLL Brain (Mouse, μM) [3]	% Inh MGLL Brain (Mouse, μM) [3]	% Inh MGLL PFC (Human, μM) [1]
O=C(OC(C(F)(F)F)C(F)(F)F)N1CCC2(CCCN2Cc2cc(F)cc(C3(C(=O)O)CCCC3)c2)CC1 [Example 4, 1-(3-Fluoro-5-((8-(((1,1,1,3,3,3-hexafluoropropan-2-yl)oxy)carbonyl)-1,8-diazaspiro[4.5]decan-1-yl)methyl)phenyl)cyclopentane-1-carboxylic acid]	* * *	### (### is ≥75%)		# (# is ≤25%)		### (### is ≥75%)	
O=C(OC(C(F)(F)F)C(F)(F)F)N1CCC2(CCCN2Cc2cc(C(F)(F)F)cc(C3(C(=O)O)CCCC3)c2)CC1 [Example 8, 1-(3-((8-(((1,1,1,3,3,3-Hexafluoropropan-2-yl)oxy)carbonyl)-1,8-diazaspiro[4.5]decan-1-yl)methyl)-5-(trifluoromethyl)phenyl)cyclopentane-1-carboxylic acid]				## (## is between 25 and 75%)		### (### is ≥75%)	### (### is ≥75%)
CN(Cc1cccc(Cl)c1C1(C(=O)O)CCCC1)C1(C)CCN(C(=O)OC(C(F)(F)F)C(F)(F)F)CC1 [Example 9, 1-(2-Chloro-6-(((1-(((1,1,1,3,3,3-hexafluoropropan-2-yl)oxy)carbonyl)-4-methylpiperidin-4-yl)(methyl)amino)methyl)phenyl)cyclopentane-1-carboxylic acid]	* * *	### (### is ≥75%)		# (# is ≤25%)		### (### is ≥75%)	
O=C(O)C1CCN(Cc2cc(C(F)(F)F)ccc2C(=O)N2CCCC23CCN(C(=O)OC(C(F)(F)F)C(F)(F)F)CC3)CC1 [Example 10, 1-(2-(8-(((1,1,1,3,3,3-Hexafluoropropan-2-yl)oxy)carbonyl)-1,8-diazaspiro[4.5]decane-1-carbonyl)-5-(trifluoromethyl)benzyl)piperidine-4-carboxylic acid]		### (### is ≥75%)		# (# is ≤25%)		### (### is ≥75%)	
O=C(O)C1CCN(Cc2cc(Cl)cc(C(=O)N3CCCC34CCN(C(=O)OC(C(F)(F)F)C(F)(F)F)CC4)c2)CC1 [Example 11, 1-(3-Chloro-5-(8-(((1,1,1,3,3,3-hexafluoropropan-2-yl)oxy)carbonyl)-1,8-diazaspiro[4.5]decane-1-carbonyl)benzyl)piperidine-4-carboxylic acid]		### (### is ≥75%)	* * *	# (# is ≤25%)		### (### is ≥75%)	
N#Cc1ccc(C(=O)N2CCC3(CCN(C(=O)OC(C(F)(F)F)C(F)(F)F)CC3)C2)cc1C(F)(F)F [Example 12, 1,1,1,3,3,3-Hexafluoropropan-2-yl 2-(4-cyano-3-(trifluoromethyl)benzoyl)-2,8-diazaspiro[4.5]decane-8-carboxylate]	* * *			### (### is ≥75%)		### (### is ≥75%)	### (### is ≥75%)
O=C(O)C1CN(c2cc(C(F)(F)F)ccc2CN2CC3(CCN(C(=O)OC(C(F)(F)F)C(F)(F)F)CC3)C2)CCO1 (stereo not shown) [Example 20, 4-(2-((7-(((1,1,1,3,3,3-Hexafluoropropan-2-yl)oxy)carbonyl)-2,7-diazaspiro[3.5]nonan-2-yl)methyl)-5-(trifluoromethyl)phenyl)morpholine-2-carboxylic acid]	* * *		* * *	## (## is between 25 and 75%)	* * *	### (### is ≥75%)	### (### is ≥75%)
CC1(C(=O)O)CN(c2cc(CN3CC4(CCN(C(=O)OC(C(F)(F)F)C(F)(F)F)CC4)C3)cc(C(F)(F)F)c2)CCO1 (stereo not shown) [Example 22, 4-(3-((7-(((1,1,1,3,3,3-Hexafluoropropan-2-yl)oxy)carbonyl)-2,7-diazaspiro[3.5]nonan-2-yl)methyl)-5-(trifluoromethyl)phenyl)-2-methylmorpholine-2-carboxylic acid]	* * *			### (### is ≥75%)		### (### is ≥75%)	### (### is ≥75%)
O=C(O)C1CCCCN1c1cc(C(F)(F)F)ccc1CN1CC2(CCN(C(=O)OC(C(F)(F)F)C(F)(F)F)CC2)C1 (stereo not shown) [Example 23, 1-(2-((7-(((1,1,1,3,3,3-Hexafluoropropan-2-yl)oxy)carbonyl)-2,7-diazaspiro[3.5]nonan-2-yl)methyl)-5-(trifluoromethyl)phenyl)piperidine-2-carboxylic acid]				# (# is ≤25%)		# (# is ≤25%)	### (### is ≥75%)

Further lines, results first:

IC50 MGLL PC3 (Human, μM) [1]	% Inh MGLL PC3 (Human, μM) [1]	IC50 MGLL PFC (Human, μM) [1]	% Inh ABHD6 Brain (Mouse, μM) [2]	IC50 MGLL Brain (Mouse, μM) [3]	% Inh MGLL Brain (Mouse, μM) [3]	% Inh MGLL PFC (Human, μM) [1]	Compound
* * *	### (### is ≥75%)	* * *	# (# is ≤25%)	* * *	### (### is ≥75%)		O=C(O)CN1CCN(c2cc(C(F)(F)F)ccc2CN2CCCC23CCN(C(=O)OC(C(F)(F)F)C(F)(F)F)CC3)CC1 [Example 3, 2-(4-(2-((8-(((1,1,1,3,3,3-Hexafluoropropan-2-yl)oxy)carbonyl)-1,8-diazaspiro[4.5]decan-1-yl)methyl)-5-(trifluoromethyl)phenyl)piperazin-1-yl)acetic acid]
* * *	### (### is ≥75%)		# (# is ≤25%)		### (### is ≥75%)		CC(C)(C#Cc1cc(C(F)(F)F)ccc1CN1CCCC12CCN(C(=O)OC(C(F)(F)F)C(F)(F)F)CC2)C(=O)O [Example 5, 4-(2-((8-(((1,1,1,3,3,3-Hexafluoropropan-2-yl)oxy)carbonyl)-1,8-diazaspiro[4.5]decan-1-yl)methyl)-5-(trifluoromethyl)phenyl)-2,2-dimethylbut-3-ynoic acid]
* * *			# (# is ≤25%)		### (### is ≥75%)	### (### is ≥75%)	O=C(OC(C(F)(F)F)C(F)(F)F)N1CCC2(CCCN2Cc2ccc(C(F)(F)F)cc2C2(C(=O)O)CCCC2)CC1 [Example 7, 1-(2-((8-(((1,1,1,3,3,3-hexafluoropropan-2-yl)oxy)carbonyl)-1,8-diazaspiro[4.5]decan-1-yl)methyl)-5-(trifluoromethyl)phenyl)cyclopentane-1-carboxylic acid]
			### (### is ≥75%)	* * *	### (### is ≥75%)	### (### is ≥75%)	O=C(OC(C(F)(F)F)C(F)(F)F)N1CCC2(CCCN2C(=O)c2ccc(Cl)cc2)CC1 [Example 13, 1,1,1,3,3,3-Hexafluoropropan-2-yl 1-(4-chlorobenzoyl)-1,8-diazaspiro[4.5]decane-8-carboxylate]
* * *			### (### is ≥75%)		### (### is ≥75%)	### (### is ≥75%)	CN(Cc1ccc(C(F)(F)F)cc1N1CCC(C(=O)O)CC1)C1(C)CCN(C(=O)OC(C(F)(F)F)C(F)(F)F)CC1 [Example 14, 1-(2-(((1-(((1,1,1,3,3,3-Hexafluoropropan-2-yl)oxy)carbonyl)-4-methylpiperidin-4-yl)(methyl)amino)methyl)-5-(trifluoromethyl)phenyl)piperidine-4-carboxylic acid]
* * *			### (### is ≥75%)		### (### is ≥75%)	### (### is ≥75%)	O=C(O)c1cc(CN2CC3(CCN(C(=O)OC(C(F)(F)F)C(F)(F)F)CC3)C2)ccc1C(F)(F)F [Example 21, 5-((7-(((1,1,1,3,3,3-Hexafluoropropan-2-yl)oxy)carbonyl)-2,7-diazaspiro[3.5]nonan-2-yl)methyl)-2-(trifluoromethyl)benzoic acid]
